The record followed here is patent US20240285808A1, “MOLECULAR PROBES FOR IN VIVO DETECTION OF ALDEHYDES” (The General Hospital Corporation, priority 2021, published 2024).

The subject of data set [1] is lungs of bleomycin-injured mice. As to the kind of experiment: MR imaging of lung in bleomycin lung fibrosis model. The class given is in vivo, mouse. To be noted: for ΔLMR in lungs, pair-wise comparison: 60 min post injection, individual mice ID 1-6. As to the method: C57Bl/6 adult male mice at 8 weeks of age (Jackson Laboratories, Barr Harbor, ME) received a single intratracheal dose of bleomycin, 1 units/kg body weight (50 μL total volume) (Fresenius Kabi, Lake Zurich, Il) as previously described in Desogere, P., et al. Optimization of a Collagen-Targeted PET Probe for Molecular Imaging of Pulmonary Fibrosis. J Nuc Med 58, 1991-1996 (2017).
Pair-Wise Comparison Between Gd-CHyd and Gd-9 in Lung Fibrosis Model:
A series of baseline images were first acquired. […] Then anesthesia was removed, and the mouse was allowed to awake and return to cage. After 4 hours, the same mouse was anesthetized again.
Pair-wise comparison between Mn-15 and Mn-17 in lung fibrosis model: The bleomycin-injured mice were first randomly imaged with Mn-15 or Mn-17 and then 24 hours later same imaging protocol was performed in the same mice with the other probe.
Animals were anesthetized with isoflurane (1-2%) and placed in a specially designed cradle with body temperature maintained at 37° C. The inhaled isoflurane level was adjusted to maintain a respiration rate of 60±5 breaths per minute. The tail vein was cannulated for intravenous (i.v.) delivery of the contrast agent while the animal was positioned in the scanner. Imaging was performed at 4.7 T using a small bore animal scanner with a custom-built volume coil. Mice were imaged with a dose of 100 μmol/kg from 30 mM stock solution of Gd or Mn complex.
For lung imaging, images were acquired with following sequences and parameters: 3D Ultrashort TE (3D-UTE, TR/TE/FA=4 ms/11.75 μs/16°, 0.6 mm isotropic spatial resolution, field of view (FOV) 75 mm×75 mm, one average, acquisition time=6.1 min) images were acquired prior to and dynamically post injection of contrast agent; Rapid Acquisition with Relaxation Enhancement (RARE, TR/TE/FA=1.5 s/8 ms/180°, 0.3 mm isotropic spatial resolution, field of view (FOV) 60 mm×50 mm, four average, acquisition time=6.1 min) and T1-weighted 3D Fast Low Angle Shot (FLASH, TR/TE/FA=10 ms/2.5 ms/30°, 0.6 mm isotropic spatial resolution, field of view (FOV) 60 mm×50 mm, one average, acquisition time=6.1 min) images were also acquired.
A total of 6 lung ROIs were defined on axial UTE images to obtain signal intensity (SI); ROIs in the dorsal muscle in each slice were also defined as reference; ROIs in the field of view without any tissue (air) were used to measure the variation in background signal. Then the lung-to muscle ratio (LMR) or contrast to noise ratio (CNR) was averaged from the 6 slices to calculate changes in LMR (ΔLMR) or CNR (ΔCNR) at each time point.
Gd-9 is a Gd-DOTA derivative with two hydrazine arms synthesized by amide coupling of two tBu-piperazin-1-ylcarbamate groups to 1,4,7,10-tetraazacyclododecane-1,4-bis(tBu-acetate)-4,10-bis(glutaric acid 1-tBu ester), followed by acid deprotection and gadolinium complexation. C57Bl/6 adult male mice at 8 weeks of age received a single intratracheal dose of bleomycin, 1 U/kg body weight (50 μL total volume) as previously described. Pair-wise imaging study of GdCHyd and Gd-9 was carried out in mice at day 14 post bleomycin injury on a 4.7 T MRI with a dose of 100 μmol/kg of each probe. For the treatment study, mice were imaged first at day 10 post bleomycin injury, then treated daily with oral gavage of either epigallocatechin gallate (EGCG, 100 mg/kg) or PBS (vehicle) for 11 days. At day 21 post bleomycin injury, the animals were imaged again. MRI consisted of T1-weighted UTE (TR/TE/flip angle=4 ms/0.011 ms/15°) images acquired prior to and up to 30 minutes following intravenous administration of Gd-9 ([…]). Following the second imaging session, animals were euthanized (60 minutes post injection), and lung tissues were removed for further analysis.

Data set [2] in a line: Reaction rates with butyraldehyde by UV-visible measurements (Method D). The class given is physicochemical. As to conditions: for k (second order / condensation rate constant): Method d: butyraldehyde 1 mM, Mn complex 0.04-0.10 mM, 25° C., PBS, absorbance 220 nm. As to the method: Method D: Reaction Rates with UV-Visible Measurements.
The molar extinction coefficient at 220 nm (ε220) of Mn-15, Mn-16 and Mn-17 was calculated using Beer-Lambert Law: A220=ε220Cl; where A220 is the absorbance at wavelength 220 nm, C is the concentration (M), and l is the cell path length (cm).
The kinetics for reactions of Mn-15, Mn-16 and Mn-17 with butyraldehyde were monitored spectrophotometrically by measuring the change in absorbance at 220 nm. All reactions were carried out at 25° C. in PBS. In each experiment [butyraldehyde]=1 mM and the concentrations of Mn-complex, 0.04 mM, 0.06 mM, 0.08 mM, and 0.10 mM, were varied to estimate the rate law.
At the beginning of the reaction (t=0), the concentration of the starting Mn complex is a0 and the concentration of the aldehyde condensation product is zero. After time t the concentration of the product is x, and the concentration of remaining Mn complex starting material is a0-x. For a first-order reaction
where I is the constant of integration and kobs is the observed rate constant. The rate law and a corresponding second order rate constant k were estimated by plotting reaction velocity as a function of Mn—N(where Mn—N refers to Mn-15, Mn-16, or Mn-17) concentration.
The concentration of Mn—N-Ald (where Mn-Ald refers to the reaction product with either Mn-15, Mn-16, or Mn-17) can be estimated by the following equations, where A0 is the absorbance of Mn—N and A is the absorbance of reaction mixture after time t,
The novel Mn-PC2A derivatives (FIG. 1A) were synthesized in 6 steps from the pyclen macrocycle. Hydrazone formation kinetics with butyraldehyde as a model compound were measured by UV spectroscopy at 220 nm, 25° C., pH 7.4, PBS. Hydrazone hydrolysis kinetics were measured by HPLC with UV detection at 220 nm using excess formaldehyde to trap the liberated hydrazine and prevent the reverse reaction. Allysine-modified BSA (BSA-Ald, 17.4 mg/mL, […] aldehyde) as a soluble model protein or BSA (17.3 mg/mL, 16.8 μM aldehyde) and Mn-15 or Mn-17 (50-200 μM) were incubated at 37° C. for 3 hours, and 1/T1 was measured at 1.4 T, 37° C., and plotted vs concentration to obtain relaxivity. The protein bound probe was isolated by ultrafiltration and the relaxivity of the protein-bound fraction measured. All Mn concentrations were measured by ICP-MS. Liver fibrosis was induced in male C57BL/6 mice by oral gavage with CCl4 for 12 weeks, 2-3 times per week, while control mice received vehicle (olive oil). 3D FLASH images (TR/TE/FA=15 ms/2 ms/30°, 0.25 mm^3 spatial resolution) were acquired on a 4.7 T Bruker Biospec prior to and dynamically for 40 min p.i. of 100 μmol/kg Mn-15. Liver to muscle contrast to noise was calculated as CNR=(SILiver−SIMuscle)/SDAir where SI=signal intensity and SD=standard deviation in SI.

Where [3] appears, read: bleomycin injured mice (fibrotic lung).

Where “and” joins values, the source holds several entries; their conditions need not be identical. Identical values can stand only once. Bounds are passed on as bounds.

Regarding `NN1CCN(C(=O)CCC(C(=O)[O-])N2CCN(CC(=O)[O-])CCN(CC(=O)[O-])CCN(C(CCC(=O)N3CCN(N)CC3)C(=O)[O-])CC2)CC1.[Gd+3]` (stereo not drawn) [Gd-9, cis-1,4-Gd-(CHyd)2], in data set [1] (bleomycin day 14, pairwise study, same time point post injection), the “fold higher signal in fibrotic lung than GdCHyd” value is 3 fold. Moreover, the “ΔCNR of lung, pair-wise comparison” value in data set [1] (bleomycin injured mice, 25 min post injection, individual mice ID 1-4) was 3.7 and 4.3 and 3.0 and 4.0.
Regarding `NNC(CCC(=O)NCCCN1CCN(CC(=O)[O-])Cc2cccc(n2)CN(CC(=O)[O-])CC1)C(=O)O.[Mn+2]` (stereo not drawn) [Mn-15], the “fold higher condensation (hydrazone formation) rate constant compared to Mn-17” value in data set [2] worked out at 3 fold. Also, the “k (second order / condensation rate constant)” value in data set [2] is 12.1 M⁻¹ s⁻¹. Moreover, the “ΔLMR in lungs, pair-wise comparison” value in data set [1] is 0.06 and 0.11 and 0.18 (2×) and 0.08 and 0.15. Moreover, the entries for the “Change in lung to muscle ratio (ΔLMR)” value in data set [1] (Bleomycin injured mice) and in data set [1] (Naïve mice) were 0.13 and 0.00, respectively. Also, the “Washout T1/2 in lungs” value in data set [1] (Naïve mice (normal lung)) was 13.7 ± 1.4 min; in data set [1] (setting [3]), 33.5 ± 5.1 min and 33.6 ± 5.1 min.
Consider `NOC(CCC(=O)NCCCN1CCN(CC(=O)[O-])Cc2cccc(n2)CN(CC(=O)[O-])CC1)C(=O)O.[Mn+2]` (stereo not drawn) [Mn-16], for which, in data set [2], the “k (second order / condensation rate constant)” value was found to be 2.5 M⁻¹ s⁻¹. The “Change in lung to muscle ratio (ΔLMR)” value came out at 0.18 in data set [1] (Bleomycin injured mice) and 0.00 in data set [1] (Naïve mice). For the same compound, the “Washout T1/2 in lungs” value in data set [1] (Naïve mice (normal lung)) is 17.9 ± 3.2 min; in data set [1] (setting [3]), over 240 min.
As for `NNCC(=O)NCCCN1CCN(CC(=O)[O-])Cc2cccc(n2)CN(CC(=O)[O-])CC1.[Mn+2]` [Mn-17], the “k (second order / condensation rate constant)” value in data set [2] came out at 4.6 M⁻¹ s⁻¹. Also, in data set [1], the “ΔLMR in lungs, pair-wise comparison” value was 0.09 and 0.18 (2×) and 0.27 and 0.15 (2×). The results for the “Change in lung to muscle ratio (ΔLMR)” value in data set [1] (Bleomycin injured mice) and in data set [1] (Naïve mice) were 0.15 and 0.00, respectively. The “Washout T1/2 in lungs” value worked out at 15.1 ± 1.9 min in data set [1] (Naïve mice (normal lung)) and 41.5 ± 6.3 min in data set [1] (setting [3]).
`CN(C)C(CCC(=O)NCCCN1CCN(CC(=O)[O-])Cc2cccc(n2)CN(CC(=O)[O-])CC1)C(=O)O.[Mn+2]` (stereo not drawn) [Mn-18]: the figures for the “Change in lung to muscle ratio (ΔLMR)” value in data set [1] (Bleomycin injured mice) and in data set [1] (Naïve mice) were 0.04 and 0.01, respectively. Moreover, the entries for the “Washout T1/2 in lungs” value in data set [1] (Naïve mice (normal lung)) and in data set [1] (setting [3]) were 15.7 ± 1.8 min and 18.9 ± 2.0 min, respectively.
